Literature values in patent publication US11045444B2, “Composition and method for promoting eyelash and eyebrow growth exclusively containing naturally sourced ingredients” (Plume Cosmetics Inc., priority 2016, dated 2021).

solubility in water: approximately 0.001%
SMILES: C=C[C@@]1(C)CC(=O)[C@]2(O)[C@@]3(C)[C@@H](O)CCC(C)(C)[C@@H]3[C@H](O)[C@H](OC(C)=O)[C@@]2(C)O1 [forskolin]
